The subject of data set [1] is CB1R. The conditions noted are these: cited from earlier work.
Data set [2] concerns the target T1, CB1R (Mus musculus, UniProt P47746).
T1 construct: from tissue; host or cells: living C57BL/6J mice (whole animal; brain and peripheral tissues)
Put plainly: Two-bottle free-choice alcohol preference test (15% ethanol). The data set is classed as in vivo. The following applies: for alcohol preference and intake: daily oral gavage days 6–10 (S-MRI-1867 3, 10 mg/kg; R-MRI-1867 10 mg/kg), male C57BL/6J mice. As to the method: The procedure was performed as described, with modifications. Animals were individually housed and acclimated to the paradigm for 5–7 days by having access to two identical water bottles and handled daily to minimize the stress associated with drug testing. Animals were first subjected to a gradual increase in ethanol concentration in a drinking bottle (3%, 6%, 9%, 12%, 15%), while the other bottle contained water. The position of the bottles was changed every day, and alcohol and water bottles were replaced every 4 days. Once alcohol concentration reached 15%, animals remained on the paradigm for 10 days. Starting on day 2, mice received vehicle by oral gavage for 4 days, followed by a daily treatment with the global or peripheral CB1 antagonist (S-MRI-1867 1, 3, 10 mg/kg; R-MRI-1867 10 mg/kg,) or vehicle (control group) for another 5 days, one hour before the dark period. All animals were sacrificed for blood and tissue collection 12–16 h after treatment.

For data set [3], the target named is T1, CB1R. Description: Drinking-in-the-dark voluntary ethanol intake (20% ethanol, 4 h). The format is in vivo. The following applies: for alcohol drinking after oral gavage: wild-type/C57BL/6J mice, oral gavage day 4 (rimonabant 10 mg/kg; JD5037 3 mg/kg; S-MRI-1867 3, 10 mg/kg; R-MRI-1867 10 mg/kg). As to the method: (§1) Drugs were applied in a volume of 1 μL over the course of 2 min via 33 g internal injector (P1 Technologies, Roanoke, VA, USA) connected with the 2 µL precision glass Hamilton syringe (USA) by a PE-20 tubing (Fisher Scientific, Hampton, NH, USA). The infusion rate and volume were controlled through the use of the syringe pump (model PHD 22/2000, Harvard Apparatus, Cambridge, MA, USA). Following 2 min infusion, injectors were left in place for additional 3 min to allow a passive diffusion of drugs into the tissue.
The procedure was performed as described, with modifications. Mice were individually housed and acclimated to the room for 5–7 days before testing and randomly assigned to treatment groups. Starting 3 h into the dark cycle, water bottles were replaced with 20% ethanol in 25 × 100 mm glass tubes fitted with metal sippers, Access to the ethanol solution was limited to 4 h every day. […] Immediately after the drinking session, mice were deeply anesthetized with isoflurane. Blood was collected by traumatic avulsion of the orbital globe and kept for 10 min at room temperature in Eppendorf tubes followed by centrifugation at 3000× g for 10 min at 4 °C. Serum was collected and kept frozen in sealed vials at −80 °C until analysis.

Data set [4] deals with T2, iNOS (Mus musculus, UniProt P29477).
T2 construct: from tissue; host or cells: living C57BL/6J mice (whole animal)
Put plainly: Serum endotoxin in portal vein after acute ethanol intoxication. The data set is classed as in vivo. The conditions noted are these: 10 mg/kg oral gavage 30 min before 6 g/kg ethanol intragastric. The procedure:
The acute intoxication was performed on 8-week-old C57BL/6J mice as developed by, with modifications. […] The animals were fasted overnight. On the day of the experiment, they were transferred to the procedure room and allowed to acclimate to the new environment for 2 h while remaining in their home cages. Animals were divided into six treatment groups. Each mouse received S-MRI-1867 10 mg/kg or R-MRI-1867 10 mg/kg or vehicle by oral gavage, followed 6 g/kg ethanol (30% w/v) or saline by the same administration route 30 min later. Mice were anaesthetized by isoflurane 90 min later and sacrificed for blood withdrawal and tissue collection. To determine endotoxin levels, blood was drawn aseptically from the portal vein without anticoagulant and clotted for 30 min at room temperature. Samples were then centrifuged at 2000× g for 15 min at room temperature. Serum was pipetted off aseptically into new sterile vials and kept frozen at −80 °C until analysis. For the collection of tissue specimens, the entire alimentary tract was removed and cleaned from the mesentery from mice treated with S-MRI-1867 and saline. Stomach and ~5 cm segments of duodenum, jejunum, ileum, and colon were dissected out, flushed three times with 20 mL ice-cold PBS, and kept in −80 °C freezer till analysis.
Serum samples were thawed and diluted 1:5 with sterile water. […]

The target of data set [5] is T1, CB1R. Put plainly: CP 55,940-induced catalepsy (bar test) in mice. The data set is classed as in vivo. The following applies: CP55,940 0.1–3 mg/kg i.p. The procedure:
as §1
(§2) Catalepsy was assessed using the bar test described with modifications. Mice were removed from home cages and their forepaws were placed on a horizontal stainless-steel rod, 0.5 cm in diameter, positioned 3.5 cm above the bench surface. […] The arbitrary cutoff time for cataleptic mice was 60 s. Hypothermia was then evaluated by measuring core body temperature with a rectal probe (Ellab Inc., Denver, CO, USA).
(§3) To determine a working range of CP 55,940 doses that induce catalepsy and hypothermia through CB1R, a dose–response curve for CP 55,940 was constructed first. Pharmacologically naïve Cnr1^−/− and wild-type littermates were injected with increasing doses of CP 55,940 (0.1, 0.3, 1, and 3 mg/kg; i.p.) at 30 min intervals. Hypothermia and catalepsy tests were performed every 30 min before ordering the next dose of CP 55,940.

Data set [6] concerns the target T1, CB1R. Put plainly: CP 55,940-induced hypothermia in mice. The conditions noted are these: CP55,940 0.1–3 mg/kg i.p. The format is in vivo. As to the method:
as §1, §2, §3

Data set [7] deals with T1, CB1R. Further details: method as in PMID 31105045. The following applies: cited from earlier work.
Data set [8] deals with T1, CB1R. Description: Elevated plus maze test of anxiety-related behavior. The data set is classed as in vivo. The following applies: 1 µg i.c.v., tested 1 h later. As to the method:
as §1
Anxiety-related behavior was assessed using the elevated plus maze (EPM) test as described, with modifications. C57BL/6J mice were allowed to acclimate in their home cages for 2 h prior to the procedure. Animals received i.c.v infusion of JD5037 1 µg or vehicle and were tested in the EPM one hour later.
Mice were given 5 min to explore an elevated platform (72 cm above the floor) consisting of two opposing open and closed arms (each 30 × 5 cm) crossing each other. Illumination in the open and closed arms was 20 and 90 Lux, respectively. Mice were placed individually in the center of the platform (5 × 5 cm) facing an open arm. The behavior of each mouse was monitored by a computer-assisted video tracking system EthoVision XT (Noldus, Leesburg, VA, USA). The tested categories include total distance (cm) and average velocity (cm/s) of the run in the entire maze, cumulative duration (% of total time) spent in closed and open arms, number of entries into each closed and open arm of the maze (in-zone frequency). Arm entries were defined as crossing of the center point (located at approximately two thirds of the mouse body) into the arm. Number of entries, time spent in the open or closed arms, and distance travelled were measured by an automated HindSight software system (Hindsight, version 1.4, Hindsight Software Solutions Inc., Frisco, TX, USA).

The mark [9] stands for this setting: CB1R-deficient (Cnr1−/−) mice, apart from the highest dose (3 mg/kg).
[10] abbreviates: wild-type mice, cumulative at 30 min intervals.

SMILES strings stand for the structures.

T1 sequence (P47746 whole entry): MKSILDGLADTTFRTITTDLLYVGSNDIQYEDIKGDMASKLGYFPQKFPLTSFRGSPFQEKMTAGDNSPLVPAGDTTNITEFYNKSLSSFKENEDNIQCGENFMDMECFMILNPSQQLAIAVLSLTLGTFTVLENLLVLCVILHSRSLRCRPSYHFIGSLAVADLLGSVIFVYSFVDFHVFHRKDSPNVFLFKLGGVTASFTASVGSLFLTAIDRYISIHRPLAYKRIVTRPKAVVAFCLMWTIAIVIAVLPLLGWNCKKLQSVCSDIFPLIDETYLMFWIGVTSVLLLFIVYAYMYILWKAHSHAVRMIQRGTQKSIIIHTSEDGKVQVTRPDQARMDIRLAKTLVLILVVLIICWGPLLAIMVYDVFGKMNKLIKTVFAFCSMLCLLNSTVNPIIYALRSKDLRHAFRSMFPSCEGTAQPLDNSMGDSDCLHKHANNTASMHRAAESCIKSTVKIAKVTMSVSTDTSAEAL

For `C/C(N)=N/C(=N\S(=O)(=O)c1ccc(C(F)(F)F)cc1)N1C[C@@H](c2ccccc2)C(c2ccc(Cl)cc2)=N1` [R-MRI-1867], the CB1R activity entry in data set [1] was “CB1R inactive”. Besides, the “alcohol preference and intake” value in data set [2] is listed as “remained unaffected”. The “alcohol drinking after oral gavage” value in data set [3] is reported as “unaffected”. Besides, the “alcohol-induced increase in plasma levels of LPS (portal serum endotoxin)” value in data set [4] is listed as “similarly inhibited”.
Turning to `CC(N)=NC(=NS(=O)(=O)c1ccc(C(F)(F)F)cc1)N1C[C@H](c2ccccc2)C(c2ccc(Cl)cc2)=N1` [S-MRI-1867], in data set [1], the CB1R inhibitory potency result is listed as “nanomolar”. Besides, the “alcohol preference and intake” value in data set [2] was “effective in reducing alcohol preference and intake”. The “total liquid consumption or food intake” value in data set [2] (daily oral gavage days 6–10, S-MRI-1867 3, 10 mg/kg) is listed as “without affecting”. The “alcohol drinking after oral gavage” value in data set [3] was “inhibited alcohol consumption in a dose-dependent fashion”. Also, the “alcohol-induced increase in plasma levels of LPS (portal serum endotoxin)” value in data set [4] is reported as “similarly inhibited”.
For the molecule `CCCCCCC(C)(C)c1ccc([C@@H]2C[C@H](O)CC[C@H]2CCCO)c(O)c1` [CP55,940], the cataleptic behavior entry in data set [5] (setting [9]) is recorded as “completely insensitive to treatment”; in data set [5] (setting [10]), “cataleptic behavior”. Further, the “decrease in body temperature (hypothermia)” value in data set [6] (setting [9]) was “completely insensitive to treatment”; in data set [6] (setting [10]) it was “dose-dependent decrease in body temperature”.
On to `CC(C)[C@H](N=C(NS(=O)(=O)c1ccc(Cl)cc1)N1C[C@H](c2ccccc2)C(c2ccc(Cl)cc2)=N1)C(N)=O` [JD5037], for which the “alcohol drinking after i.c.v. infusion” value in data set [3] (i.c.v. on day 4, one hour before dark period (rimonabant 2 µg; JD5037 1 µg)) is given as “ineffective in reducing alcohol drinking”. Also, the “alcohol drinking after oral gavage” value in data set [3] was “effectively reduced alcohol drinking”. Besides, the “effect on alcohol drinking in CB1R-deficient mice” value in data set [7] is “did not occur in CB1R-deficient mice”. For the same molecule, in data set [8] (5 min run, n = 6, mean ± s.e.m., vehicle 4.0 ± 0.4), the “velocity in elevated plus maze” value came out at 2.4 ± 0.4 cm/s. The “total distance traveled in elevated plus maze” value in data set [8] (5 min run, n = 6, mean ± s.e.m., vehicle 1189.0 ± 111.6) was determined as 740.5 ± 130.6 cm. Moreover, in data set [8] (vs vehicle), the “movement between the two closed arms (frequency)” value is reported as “moved less frequently between the two closed arms”; the “open arm entries and exploration” value was “failure to enter open arms”; the “time spent in closed arms” value is “stayed much longer in the closed arms”.

Values taken from publication PMC8399901, “Effects of a Peripherally Restricted Hybrid Inhibitor of CB1 Receptors and iNOS on Alcohol Drinking Behavior and Alcohol-Induced Endotoxemia” (Molecules, 2021).
